According to patent publication EP0951284B1, “[…] DERIVATIVES” (priority 1996, dated 1998):
pIC50: −log10 of the molar value. Counter-ions that a name gives are not always drawn.

Assays:
[1] = target: T1, whole brain AChE (Mus musculus, UniProt P21836); assay: Ex vivo measurement of brain AChE inhibition after sub-cutaneous administration; assay type: in vivo, mice; details: for Time to peak activity t / Time to return to 50% of peak t: AChE inhibition; for ED50: sc, sub-cutaneous, mouse whole brain, at peak of activity, read-out: AChE Inhibition Ex vivo ED50 (AC)
T1 construct: the brains rapidly removed (minus cerebellum), weighed and homogenized in 0.1M phosphate buffer pH 8.0; from tissue; host or cells: mouse brain (minus cerebellum) homogenate supernatant
T1 sequence (P21836 32-614): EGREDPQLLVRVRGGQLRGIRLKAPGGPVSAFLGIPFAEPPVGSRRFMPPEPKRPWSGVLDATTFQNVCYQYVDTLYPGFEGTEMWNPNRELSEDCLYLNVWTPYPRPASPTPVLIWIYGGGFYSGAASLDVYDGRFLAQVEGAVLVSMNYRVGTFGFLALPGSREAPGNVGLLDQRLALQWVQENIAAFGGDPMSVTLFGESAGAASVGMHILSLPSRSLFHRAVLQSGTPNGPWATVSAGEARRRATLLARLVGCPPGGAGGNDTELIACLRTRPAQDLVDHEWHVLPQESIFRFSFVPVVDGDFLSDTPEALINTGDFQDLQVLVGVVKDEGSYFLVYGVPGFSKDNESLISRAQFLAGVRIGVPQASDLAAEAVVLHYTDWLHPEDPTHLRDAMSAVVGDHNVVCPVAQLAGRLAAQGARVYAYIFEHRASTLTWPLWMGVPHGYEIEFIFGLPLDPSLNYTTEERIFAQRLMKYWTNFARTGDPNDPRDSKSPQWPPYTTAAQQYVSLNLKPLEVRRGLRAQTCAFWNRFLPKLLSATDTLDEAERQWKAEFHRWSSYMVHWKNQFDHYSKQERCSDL
Description: Test drugs or saline were administered sub-cutaneously to male mice (Sabra strain, 28-35g). At least 4-5 mice were used per dose and a minimum of 3 doses per drug were tested. The mice were sacrificed 15, 30, 60, 70, 90, 120 or 180 minutes after drug administration, the brains rapidly removed (minus cerebellum), weighed and homogenized in 0.1M phosphate buffer pH 8.0, containing Triton (1mg/100g tissue) and centrifuged to remove cell debris. Aliquots (25 µl) of the supernatant were then incubated with acetylthiocholine and DTNB. AChE activity measured as described above. The % inhibition of whole brain AChE by each dose of drug was calculated by comparison with enzyme activity from 3 saline treated control mice run at the same time.

[2] = test system: MAO-A; assay: Inhibition of MAO activity ex vivo (brain tissue), 5-HT substrate; assay type: in vivo, mice; details: mouse brain tissue
Description: (§1) Male Sabra mice, weighing 45-50g were injected with test compound solutions (prepared in 0.9% saline). Each dose was administered to two or three mice. The mice were sacrificed two hours after drug administration or at a time corresponding to the peak AChE inhibition time (see Table 6). The brain and liver were rapidly dissected and stored in appropriate vials on ice. The tissues were weighed, diluted to 1/20 in sucrose 0.3M and stored at -20°C before performance of the MAO assay described above. The results given in Table 6 relate to measurements made on brain tissue only.

[3] = target: T2, MAO-A (Rattus norvegicus, UniProt P21396); assay: Inhibition of MAO activity in vitro, rat brain homogenate, 5-HT substrate
T2 sequence (P21396 1-526): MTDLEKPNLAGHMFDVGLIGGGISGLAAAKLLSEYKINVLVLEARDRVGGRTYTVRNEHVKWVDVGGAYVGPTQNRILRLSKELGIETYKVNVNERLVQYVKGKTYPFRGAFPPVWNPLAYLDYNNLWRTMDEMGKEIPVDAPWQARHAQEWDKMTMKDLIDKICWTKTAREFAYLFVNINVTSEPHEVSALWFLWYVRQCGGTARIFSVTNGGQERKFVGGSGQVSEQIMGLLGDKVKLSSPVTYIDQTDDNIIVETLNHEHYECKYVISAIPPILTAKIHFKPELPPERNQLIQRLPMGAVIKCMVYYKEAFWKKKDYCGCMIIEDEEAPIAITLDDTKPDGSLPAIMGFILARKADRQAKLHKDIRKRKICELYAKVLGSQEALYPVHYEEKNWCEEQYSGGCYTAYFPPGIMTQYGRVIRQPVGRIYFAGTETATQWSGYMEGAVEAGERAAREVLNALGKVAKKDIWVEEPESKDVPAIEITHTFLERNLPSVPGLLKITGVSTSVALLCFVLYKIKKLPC
Description: The MAO enzyme source was a homogenate of rat brain in 0.3M sucrose, which was centrifuged at 600G for 15 minutes. The supernatant was diluted appropriately in 0.05M phosphate buffer, and pre-incubated with serial dilutions of test compounds for 20 minutes at 37°C. ^14C-Labeled substrates (2-phenylethylamine, hereinafter PEA; 5-hydroxytryptamine, hereinafter 5-HT) were then added, and the incubation continued for a further 20 minutes (PEA), or 30-45 minutes (5-HT). Substrate concentrations used were 50µM (PEA) and 1mM (5-HT). In the case of PEA, enzyme concentration was chosen so that not more than 10% of the substrate was metabolized during the course of the reaction. The deaminated products were extracted into toluene-ethyl acetate (1:1, v/v) containing 0.6% (w/v) 2,5-diphenyloxazole prior to determination by liquid scintillation counting. Radioactivity in the eluate indicates the production of neutral and acidic metabolites formed as a result of MAO activity. Activity of MAO in the sample was expressed as a percentage of control activity in the absence of inhibitors after subtraction of appropriate blank values The activity determined using PEA as substrate is referred to as MAO-B, and that determined using 5-HT as MAO-A.

[4] = test system: mice; assay: Closed head injury (CHI) in mice: motor function, neurological severity score (NSS); assay type: in vivo; details: sc at ED50 for acetylcholinesterase inhibition, once 15 min after CHI
Description: The procedure for closed head injury followed was as described for rats in Shohami et al. (J. Neurotrauma (1993) 10(2) 109-119) with changes as described.
Animals: Male Sabra mice (Hebrew University strain) weighing 34-40g were used. They were housed in groups of 10 per cage, in a 12hr:12hr light:dark cycle. Food and water were provided ad libitum.
Trauma was induced under ether anesthesia. A longitudinal incision was performed in the skin covering the skull and the skin retracted to expose the skull. The head was fixed manually at the lower plane of the impact apparatus. A weight of 333g was delivered by an electric device from a height of 3cm to the left hemisphere, 1-2mm lateral to the midline in the midcoronal plane.
One point was awarded for the lack of a tested reflex or for the inability to perform the tasks outline in the Table. The maximal score that can be reached at 1 hour post-CHI is 25 points and 21 at later times. The difference in NSS at 1hr and at any other time reflects the recovery, and is referred to as NSS. An NSS score of 15-19 at 1hr denotes severe injury, 11-14 moderate injury and less than 10 mild injury.

[5] = target: T2, MAO-A; assay: Inhibition of MAO activity following sub-acute (14 days) administration to rats, MAO-A; assay type: in vivo; parameters: from tissue; host or cells: brain, liver and intestine of Sprague Dawley rats; details: 20mg/kg daily for 14 days
Description: as §1
Experiments were done with Spague Dawley male rats. Procedures were repeated as described in Examples 2.1 and 2.2, but drug administration was continued daily for 14 days. At the end of this period animals were sacrificed and MAO levels determined in the brain, liver and intestines. Compound 17 was administered sub-cutaneously or per os at a dose of 20mg/kg.

C#CCNCCc1cccc(OC(=O)N(C)C)c1 [Compound 11]
Time to peak activity t [1]: 15 min | Time to return to 50% of peak t [1]: 70 min | ED50 [1]: 3.2 µmol/kg | MAO-A Inhibition Ex vivo ED50 [2]: 40 µmol/kg | pIC50 [3]: 5.60

C#CCN(C)CCc1cccc(OC(=O)N(C)C)c1 [Compound 12]
Time to peak activity t [1]: 15 to 30 min | Time to return to 50% of peak t [1]: 120 min | ED50 [1]: 2.8 µmol/kg | MAO-A Inhibition Ex vivo ED50 [2]: 4 µmol/kg | pIC50 [3]: 6.42

C#CCNC(C)Cc1cccc(OC(=O)N(C)C)c1 (centres unmarked) [Compound 16]
Time to peak activity t [1]: 15 min | Time to return to 50% of peak t [1]: 70 min | ED50 [1]: 2.3 µmol/kg | MAO-A Inhibition Ex vivo ED50 [2]: >20 µmol/kg | pIC50 [3]: 5.15

C#CCNC(C)Cc1cccc(OC(=O)N(C)CC)c1 (stereo not drawn) [Compound 17, 3-(N-Me,N-Etcarbamyloxy)α-methyl, N-propargyl phenethylamine.HCl]
Time to peak activity t [1]: 30 to 60 min | Time to return to 50% of peak t [1]: 120 min | ED50 [1]: 64 µmol/kg | MAO-A Inhibition Ex vivo ED50 [2]: >40 µmol/kg | pIC50 [3]: 4.92 | ΔNSS, 24 hr post-CHI ([4]; saline 4.75±0.17): 5.58±0.38 | ΔNSS, 7 days post-CHI ([4]; saline 5.83±0.36): 6.92±0.36 | ΔNSS, 14 days post-CHI ([4]; saline 5.96±0.4): 7.83±0.53 | inhibition at 20 mg/kg ([5]; po, Brain): 59% | inhibition at 20 mg/kg ([5]; po, Intestine): 25% | inhibition at 20 mg/kg ([5]; po, Liver): 59% | inhibition at 20 mg/kg ([5]; sc, Brain): 76% | inhibition at 20 mg/kg ([5]; sc, Intestine): 10% | inhibition at 20 mg/kg ([5]; sc, Liver): 33%
